Assays:
Format in all cases: functional
[1] = target: T1, 5-hydroxytryptamine receptor 1A (Homo sapiens) (UniProt P08908); test: Agonist activity at recombinant human 5-HT1A assessed as induction of cAMP levels at 10 uM by HTRF assay relative to agonist
T1 sequence (whole entry): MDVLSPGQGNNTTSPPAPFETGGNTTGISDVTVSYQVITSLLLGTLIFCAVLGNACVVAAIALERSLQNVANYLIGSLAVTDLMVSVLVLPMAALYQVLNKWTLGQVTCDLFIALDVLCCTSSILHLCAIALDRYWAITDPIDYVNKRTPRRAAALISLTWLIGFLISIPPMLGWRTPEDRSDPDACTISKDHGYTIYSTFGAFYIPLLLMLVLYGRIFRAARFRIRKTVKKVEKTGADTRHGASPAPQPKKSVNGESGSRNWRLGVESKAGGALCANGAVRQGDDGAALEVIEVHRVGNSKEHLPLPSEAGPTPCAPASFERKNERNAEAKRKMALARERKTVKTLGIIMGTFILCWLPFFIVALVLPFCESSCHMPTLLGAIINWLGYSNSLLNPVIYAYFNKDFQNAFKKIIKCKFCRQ

[2] = target: 5-hydroxytryptamine receptor 2B (Homo sapiens) (UniProt P41595); test: Antagonist activity at recombinant human 5-HT2B assessed as inhibition of agonist-induced effect at 10 uM by aequorin reporter based assay
[3] = target: 5-hydroxytryptamine receptor 4 (Homo sapiens) (UniProt Q13639); test: Agonist activity at recombinant human 5-HT4E assessed as induction of cAMP levels at 10 uM by HTRF assay relative to agonist
[4] = target: 5-hydroxytryptamine receptor 5A (Homo sapiens) (UniProt P47898); test: Agonist activity at recombinant human 5-HT5A at 10 uM by aequorin reporter based assay relative to agonist
[5] = target: 5-hydroxytryptamine receptor 6 (Homo sapiens) (UniProt P50406); test: Antagonist activity at recombinant human 5-HT6R assessed as inhibition of agonist-induced cAMP induction at 10 uM by HTRF assay
[6] = target: T2, Adenosine receptor A3 (Homo sapiens) (UniProt P0DMS8); test: Agonist activity at recombinant human adenosine A3 receptor […] at 10 uM by HTRF assay relative to agonist
T2 sequence (whole entry): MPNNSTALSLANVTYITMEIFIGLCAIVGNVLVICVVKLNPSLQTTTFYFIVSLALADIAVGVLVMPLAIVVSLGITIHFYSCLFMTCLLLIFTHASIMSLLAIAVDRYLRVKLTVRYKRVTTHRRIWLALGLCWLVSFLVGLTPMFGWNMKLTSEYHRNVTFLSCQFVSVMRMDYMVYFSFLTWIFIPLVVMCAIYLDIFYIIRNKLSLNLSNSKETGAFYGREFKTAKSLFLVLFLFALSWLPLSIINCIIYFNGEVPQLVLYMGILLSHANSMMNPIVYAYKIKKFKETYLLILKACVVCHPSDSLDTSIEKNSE

[7] = target: Beta-1 adrenergic receptor (Homo sapiens) (UniProt P08588); test: Agonist activity at recombinant human beta-1 adrenergic receptor assessed as induction of cAMP levels at 10 uM by HTRF assay relative to agonist
[8] = target: T3, Alpha-1B adrenergic receptor (Homo sapiens) (UniProt P35368); test: Antagonist activity at recombinant human alpha-1b adrenergic receptor assessed as inhibition of agonist-induced […] reporter based assay
T3 sequence (whole entry): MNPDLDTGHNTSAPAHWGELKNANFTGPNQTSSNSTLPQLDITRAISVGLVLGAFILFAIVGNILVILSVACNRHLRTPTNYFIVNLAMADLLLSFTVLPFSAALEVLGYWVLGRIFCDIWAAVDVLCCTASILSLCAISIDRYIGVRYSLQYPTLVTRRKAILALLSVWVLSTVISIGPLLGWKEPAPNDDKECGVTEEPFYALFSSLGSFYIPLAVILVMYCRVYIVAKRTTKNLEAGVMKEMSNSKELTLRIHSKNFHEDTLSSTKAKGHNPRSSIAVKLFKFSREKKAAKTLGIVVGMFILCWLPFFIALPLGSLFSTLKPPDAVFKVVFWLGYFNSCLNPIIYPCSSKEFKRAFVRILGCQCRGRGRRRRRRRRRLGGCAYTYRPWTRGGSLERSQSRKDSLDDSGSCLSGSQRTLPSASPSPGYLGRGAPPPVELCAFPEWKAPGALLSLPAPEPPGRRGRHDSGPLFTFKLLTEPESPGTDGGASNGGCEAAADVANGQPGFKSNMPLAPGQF

[9] = target: T4, Alpha-2A adrenergic receptor (Homo sapiens) (UniProt P08913); test: Antagonist activity at recombinant human alpha-2a adrenergic receptor assessed as inhibition of agonist-induced effect at 10 uM by GTPgamma[35S] binding-based assay
T4 sequence (whole entry): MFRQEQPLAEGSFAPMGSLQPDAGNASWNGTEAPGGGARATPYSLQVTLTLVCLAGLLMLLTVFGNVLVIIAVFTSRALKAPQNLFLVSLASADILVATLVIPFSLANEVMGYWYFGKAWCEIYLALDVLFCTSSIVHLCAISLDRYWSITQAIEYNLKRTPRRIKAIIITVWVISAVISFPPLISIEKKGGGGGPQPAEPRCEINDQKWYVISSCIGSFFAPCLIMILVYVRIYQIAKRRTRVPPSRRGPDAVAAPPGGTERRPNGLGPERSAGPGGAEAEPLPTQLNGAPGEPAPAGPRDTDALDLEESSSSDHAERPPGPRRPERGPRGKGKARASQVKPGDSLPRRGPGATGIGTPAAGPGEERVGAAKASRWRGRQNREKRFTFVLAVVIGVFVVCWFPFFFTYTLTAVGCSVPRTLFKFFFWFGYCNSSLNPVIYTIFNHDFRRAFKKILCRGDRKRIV

[10] = target: Histamine H1 receptor (Homo sapiens) (UniProt P35367); test: Agonist activity at recombinant human histamine H1 receptor at 10 uM by aequorin reporter based assay relative to agonist
[11] = target: Histamine H2 receptor (Homo sapiens) (UniProt P25021); test: Antagonist activity at recombinant human histamine H2 receptor assessed as inhibition of agonist-induced cAMP levels at 10 uM by HTRF assay
[12] = target: Substance-P receptor (Homo sapiens) (UniProt P25103); test: Agonist activity at recombinant human NK1R at 10 uM by aequorin reporter based assay relative to agonist
[13] = target: Mu-type opioid receptor (Homo sapiens) (UniProt P35372); test: Agonist activity at recombinant human mu-type opioid receptor at 10 uM by GTPgamma[35S] binding-based assay relative to agonist
[14] = target: Kappa-type opioid receptor (Homo sapiens) (UniProt P41145); test: Antagonist activity at human kappa-type opioid receptor assessed as inhibition of agonist-induced effect at 10 uM by GTPgamma[35S] binding-based assay
[15] = target: Somatostatin receptor type 4 (Homo sapiens) (UniProt P31391); test: Antagonist activity at human somatostatin receptor 4 assessed as inhibition of agonist-induced effect at 10 uM by GTPgamma[35S] binding-based assay
Somatostatin receptor type 4 (Homo sapiens), sequence (P31391 whole entry): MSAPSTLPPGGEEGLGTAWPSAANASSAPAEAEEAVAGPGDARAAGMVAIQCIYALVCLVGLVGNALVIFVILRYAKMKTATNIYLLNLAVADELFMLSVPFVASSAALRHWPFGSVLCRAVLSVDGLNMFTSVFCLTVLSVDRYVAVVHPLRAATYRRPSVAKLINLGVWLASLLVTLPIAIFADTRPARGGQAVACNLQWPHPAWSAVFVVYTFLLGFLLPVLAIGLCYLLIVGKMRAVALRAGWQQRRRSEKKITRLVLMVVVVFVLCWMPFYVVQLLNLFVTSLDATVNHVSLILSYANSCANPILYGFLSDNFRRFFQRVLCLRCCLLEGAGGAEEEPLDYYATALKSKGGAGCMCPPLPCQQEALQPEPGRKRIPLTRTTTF

Kappa-type opioid receptor (Homo sapiens), sequence (P41145 whole entry): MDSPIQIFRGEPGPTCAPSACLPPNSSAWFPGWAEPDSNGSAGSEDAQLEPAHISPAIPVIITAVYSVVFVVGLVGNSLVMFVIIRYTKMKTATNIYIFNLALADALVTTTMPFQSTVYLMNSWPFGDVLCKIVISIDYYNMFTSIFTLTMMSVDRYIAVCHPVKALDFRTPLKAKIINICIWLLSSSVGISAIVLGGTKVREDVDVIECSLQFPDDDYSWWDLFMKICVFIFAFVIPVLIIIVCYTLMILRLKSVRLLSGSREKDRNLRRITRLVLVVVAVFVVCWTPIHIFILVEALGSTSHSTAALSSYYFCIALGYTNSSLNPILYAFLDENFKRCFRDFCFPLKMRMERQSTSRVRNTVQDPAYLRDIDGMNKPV
5-hydroxytryptamine receptor 2B (Homo sapiens), sequence (P41595 whole entry): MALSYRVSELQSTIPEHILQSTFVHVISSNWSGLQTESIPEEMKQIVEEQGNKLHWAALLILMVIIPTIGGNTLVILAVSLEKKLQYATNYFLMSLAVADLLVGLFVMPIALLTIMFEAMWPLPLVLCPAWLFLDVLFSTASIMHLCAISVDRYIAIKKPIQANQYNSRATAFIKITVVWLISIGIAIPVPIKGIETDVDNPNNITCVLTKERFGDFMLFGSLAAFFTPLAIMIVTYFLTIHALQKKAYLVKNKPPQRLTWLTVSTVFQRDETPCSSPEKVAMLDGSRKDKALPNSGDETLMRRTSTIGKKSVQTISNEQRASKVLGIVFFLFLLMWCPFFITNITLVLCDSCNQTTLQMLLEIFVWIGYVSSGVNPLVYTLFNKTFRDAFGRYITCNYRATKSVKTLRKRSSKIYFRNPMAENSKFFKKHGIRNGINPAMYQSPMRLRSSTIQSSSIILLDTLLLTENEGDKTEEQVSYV
Mu-type opioid receptor (Homo sapiens), sequence (P35372 whole entry): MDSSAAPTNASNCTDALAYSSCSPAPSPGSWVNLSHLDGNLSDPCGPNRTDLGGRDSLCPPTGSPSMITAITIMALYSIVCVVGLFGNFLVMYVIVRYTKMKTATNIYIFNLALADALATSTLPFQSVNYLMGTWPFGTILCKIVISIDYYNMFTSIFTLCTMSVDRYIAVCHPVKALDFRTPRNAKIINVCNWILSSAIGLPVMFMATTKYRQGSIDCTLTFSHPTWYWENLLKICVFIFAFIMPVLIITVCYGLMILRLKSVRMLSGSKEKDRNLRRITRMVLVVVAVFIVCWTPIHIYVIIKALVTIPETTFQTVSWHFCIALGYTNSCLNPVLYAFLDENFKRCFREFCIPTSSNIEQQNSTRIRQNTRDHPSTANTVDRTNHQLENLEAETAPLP
5-hydroxytryptamine receptor 4 (Homo sapiens), sequence (Q13639 whole entry): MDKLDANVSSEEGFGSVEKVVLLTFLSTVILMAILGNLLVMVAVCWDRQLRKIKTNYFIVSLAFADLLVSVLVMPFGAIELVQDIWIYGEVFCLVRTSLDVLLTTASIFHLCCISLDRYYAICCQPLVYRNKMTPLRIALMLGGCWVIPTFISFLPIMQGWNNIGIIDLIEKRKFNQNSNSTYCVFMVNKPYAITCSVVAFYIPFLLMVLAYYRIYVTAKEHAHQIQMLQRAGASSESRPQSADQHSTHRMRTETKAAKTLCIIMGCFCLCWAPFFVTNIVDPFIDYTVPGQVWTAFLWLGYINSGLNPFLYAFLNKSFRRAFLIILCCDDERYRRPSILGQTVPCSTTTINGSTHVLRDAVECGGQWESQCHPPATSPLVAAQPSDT
Histamine H2 receptor (Homo sapiens), sequence (P25021 whole entry): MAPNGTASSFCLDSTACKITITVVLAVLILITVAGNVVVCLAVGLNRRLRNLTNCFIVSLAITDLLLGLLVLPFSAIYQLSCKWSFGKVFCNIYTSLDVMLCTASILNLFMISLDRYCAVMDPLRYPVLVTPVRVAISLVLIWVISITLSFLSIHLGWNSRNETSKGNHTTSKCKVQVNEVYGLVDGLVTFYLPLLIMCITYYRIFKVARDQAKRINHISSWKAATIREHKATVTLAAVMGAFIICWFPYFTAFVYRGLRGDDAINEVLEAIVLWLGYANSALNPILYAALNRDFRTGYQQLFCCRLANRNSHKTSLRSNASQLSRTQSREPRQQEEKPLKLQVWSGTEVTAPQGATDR
5-hydroxytryptamine receptor 6 (Homo sapiens), sequence (P50406 whole entry): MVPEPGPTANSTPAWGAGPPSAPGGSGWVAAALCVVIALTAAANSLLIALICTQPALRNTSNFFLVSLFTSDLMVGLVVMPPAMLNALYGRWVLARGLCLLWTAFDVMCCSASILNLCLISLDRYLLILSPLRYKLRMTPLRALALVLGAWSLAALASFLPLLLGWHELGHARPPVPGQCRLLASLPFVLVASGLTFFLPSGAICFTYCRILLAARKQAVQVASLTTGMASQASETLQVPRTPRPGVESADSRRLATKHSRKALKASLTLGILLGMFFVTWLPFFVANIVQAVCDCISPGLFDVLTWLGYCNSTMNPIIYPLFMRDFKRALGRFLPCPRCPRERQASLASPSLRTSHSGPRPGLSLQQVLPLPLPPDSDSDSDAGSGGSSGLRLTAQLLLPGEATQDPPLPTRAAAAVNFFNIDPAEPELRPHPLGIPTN
Substance-P receptor (Homo sapiens), sequence (P25103 whole entry): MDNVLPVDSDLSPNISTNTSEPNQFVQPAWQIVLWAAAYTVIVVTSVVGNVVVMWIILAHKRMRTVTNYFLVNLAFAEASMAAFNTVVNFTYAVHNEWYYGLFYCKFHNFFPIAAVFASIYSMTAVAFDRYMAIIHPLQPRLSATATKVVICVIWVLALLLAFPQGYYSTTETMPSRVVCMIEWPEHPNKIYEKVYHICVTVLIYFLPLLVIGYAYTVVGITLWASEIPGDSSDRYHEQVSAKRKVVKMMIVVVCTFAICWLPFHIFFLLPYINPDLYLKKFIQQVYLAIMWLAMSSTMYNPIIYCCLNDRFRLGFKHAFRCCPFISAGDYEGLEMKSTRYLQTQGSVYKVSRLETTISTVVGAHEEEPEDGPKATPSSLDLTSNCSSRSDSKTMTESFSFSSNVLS
5-hydroxytryptamine receptor 5A (Homo sapiens), sequence (P47898 whole entry): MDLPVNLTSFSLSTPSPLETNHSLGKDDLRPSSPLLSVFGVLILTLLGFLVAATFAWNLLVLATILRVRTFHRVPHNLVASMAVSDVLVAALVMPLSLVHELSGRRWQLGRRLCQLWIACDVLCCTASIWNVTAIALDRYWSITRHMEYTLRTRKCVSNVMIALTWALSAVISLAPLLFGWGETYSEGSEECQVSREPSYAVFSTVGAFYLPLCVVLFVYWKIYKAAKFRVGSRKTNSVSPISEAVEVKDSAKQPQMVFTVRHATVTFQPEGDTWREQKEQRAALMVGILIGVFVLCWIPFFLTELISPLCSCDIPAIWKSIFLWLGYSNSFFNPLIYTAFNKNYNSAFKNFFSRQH
Beta-1 adrenergic receptor (Homo sapiens), sequence (P08588 whole entry, looked up): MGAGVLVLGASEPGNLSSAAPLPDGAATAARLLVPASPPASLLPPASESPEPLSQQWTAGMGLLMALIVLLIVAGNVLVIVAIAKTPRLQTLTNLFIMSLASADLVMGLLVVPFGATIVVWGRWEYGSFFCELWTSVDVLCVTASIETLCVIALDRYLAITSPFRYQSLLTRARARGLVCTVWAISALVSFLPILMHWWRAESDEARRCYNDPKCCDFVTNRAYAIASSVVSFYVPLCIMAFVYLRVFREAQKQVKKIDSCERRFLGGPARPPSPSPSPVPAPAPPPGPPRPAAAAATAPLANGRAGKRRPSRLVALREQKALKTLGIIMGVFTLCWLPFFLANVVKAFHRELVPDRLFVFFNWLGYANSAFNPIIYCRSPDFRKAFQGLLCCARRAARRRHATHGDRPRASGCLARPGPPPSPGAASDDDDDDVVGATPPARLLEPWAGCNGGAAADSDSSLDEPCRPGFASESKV
Histamine H1 receptor (Homo sapiens), sequence (P35367 whole entry): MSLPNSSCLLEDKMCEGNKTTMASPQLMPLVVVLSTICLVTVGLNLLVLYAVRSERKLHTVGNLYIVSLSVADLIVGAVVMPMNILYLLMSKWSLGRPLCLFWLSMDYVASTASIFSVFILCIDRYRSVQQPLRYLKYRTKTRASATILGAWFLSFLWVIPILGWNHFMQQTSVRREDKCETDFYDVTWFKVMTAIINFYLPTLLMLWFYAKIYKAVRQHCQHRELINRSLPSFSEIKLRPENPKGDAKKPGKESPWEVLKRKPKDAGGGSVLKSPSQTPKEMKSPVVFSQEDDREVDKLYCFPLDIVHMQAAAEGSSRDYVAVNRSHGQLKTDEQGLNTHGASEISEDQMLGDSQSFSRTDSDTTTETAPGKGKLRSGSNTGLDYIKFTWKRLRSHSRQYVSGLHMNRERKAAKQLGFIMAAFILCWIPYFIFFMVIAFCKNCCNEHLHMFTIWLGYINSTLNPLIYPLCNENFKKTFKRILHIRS

| Compound | Activity [1] [%] | inhibition [2] [%] | Activity [3] [%] | Activity [4] [%] | inhibition [5] [%] | Activity [6] [%] | Activity [7] [%] | inhibition [8] [%] | inhibition [9] [%] | Activity [10] [%] | inhibition [11] [%] | Activity [12] [%] | Activity [13] [%] | inhibition [14] [%] | inhibition [15] [%] |
| --- | --- | --- | --- | --- | --- | --- | --- | --- | --- | --- | --- | --- | --- | --- | --- |
| CN(CCCNC(=O)c1cccc(Br)c1)Cc1ccccc1 | -4 | 78 | -1 | -1 | -2 | -3 | 10 | 97 | 57 | 35 | 9 | 0 | 15 | 26 | 21 |
| CN(CCCNC(=O)c1ccc(Br)cc1)Cc1ccccc1 | 0 | 37 | -7 | 1 | -1 | -6 | 2 | 81 | 42 | 1 | 6 | 0 | 39 | 22 | 4 |
| COc1cccc(C(=O)NCCCN(C)Cc2ccccc2)c1 | 0 | 26 | -12 | -3 | -1 | -3 | -10 | 56 | 20 | 14 | 16 | 0 | 16 | 4 | 25 |
| CN(CCNC(=O)c1ccc(Cl)cc1)Cc1ccccc1 | 3 | 66 | -5 | -1 | -3 | -2 | 7 | 96 | 45 | 0 | 13 | 0 | 62 | 40 | 21 |
| CCCc1ccc(C(=O)NCCCN(C)Cc2ccccc2)cc1 | -4 | 75 | -6 | 0 | 1 | 3 | 6 | 72 | 37 | 0 | 8 | 0 | 31 | 26 | 31 |
| CN(CCCNC(=O)c1ccc(C(F)(F)F)cc1)Cc1ccccc1 | -5 | 66 | 8 | -1 | 1 | 7 | 2 | 70 | 49 | 0 | 6 | 0 | 43 | 28 | 17 |
| CN(CCCNC(=O)c1ccc([N+](=O)[O-])cc1)Cc1ccccc1 | -1 | 26 | -4 | -1 | -4 | -1 | 3 | 63 | 25 | 0 | 2 | 0 | 31 | 21 | 15 |
| CN(CCCNC(=O)c1ccc(Cl)cc1)CCc1ccccc1 | 32 | 92 | -3 | 0 | 3 | -6 | 18 | 98 | 105 | 12 | 4 | 0 | 22 | 26 | -3 |
| CN(CCNC(=O)c1ccc(C#N)cc1)Cc1ccccc1 | 4 | 16 | -7 | -7 | -2 | 0 | -5 | 89 | 19 | 0 | 25 | 0 | 66 | 9 | 34 |
| COc1ccc(C(=O)NCCCN(C)Cc2ccccc2)cc1 | -2 | 16 | -13 | -5 | 0 | -5 | -12 | 39 | 23 | 0 | 15 | 0 | 16 | 23 | 25 |
| CN(CCCNC(=O)c1ccc(Cl)cc1)Cc1ccccc1 | 3 | 58 | -9 | 0 | -6 | -4 | 4 | 73 | 50 | 1 | 7 | 0 | 26 | 24 | 20 |
| CN(CCNC(=O)c1ccc([N+](=O)[O-])cc1)Cc1ccccc1 | 4 | 35 | -5 | -9 | 3 | -1 | -3 | 84 | 32 | 0 | 21 | 0 | 60 | 23 | 30 |
